This passage reports residual activity and inhibition results from ChEMBL document CHEMBL5696442, “Discovery of type II inhibitors of TGFβ-activated kinase 1 (TAK1) and mitogen-activated protein kinase kinase kinase kinase 2 (MAP4K2)” (J Med Chem, 2015).

Active and inactive are the calls of the source. The rule behind the calls is not given here.

The target in experiment [1] is Phosphatidylinositol 4-phosphate 5-kinase type-1 alpha (Homo sapiens) (UniProt Q99755). Kind of experiment: Inhibition of PIP5K1A (unknown origin) at 1 uM by Ambit Kinomescan binding assay relative to control; values are per cent of control.
Phosphatidylinositol 4-phosphate 5-kinase type-1 alpha (Homo sapiens), sequence (Q99755 whole entry): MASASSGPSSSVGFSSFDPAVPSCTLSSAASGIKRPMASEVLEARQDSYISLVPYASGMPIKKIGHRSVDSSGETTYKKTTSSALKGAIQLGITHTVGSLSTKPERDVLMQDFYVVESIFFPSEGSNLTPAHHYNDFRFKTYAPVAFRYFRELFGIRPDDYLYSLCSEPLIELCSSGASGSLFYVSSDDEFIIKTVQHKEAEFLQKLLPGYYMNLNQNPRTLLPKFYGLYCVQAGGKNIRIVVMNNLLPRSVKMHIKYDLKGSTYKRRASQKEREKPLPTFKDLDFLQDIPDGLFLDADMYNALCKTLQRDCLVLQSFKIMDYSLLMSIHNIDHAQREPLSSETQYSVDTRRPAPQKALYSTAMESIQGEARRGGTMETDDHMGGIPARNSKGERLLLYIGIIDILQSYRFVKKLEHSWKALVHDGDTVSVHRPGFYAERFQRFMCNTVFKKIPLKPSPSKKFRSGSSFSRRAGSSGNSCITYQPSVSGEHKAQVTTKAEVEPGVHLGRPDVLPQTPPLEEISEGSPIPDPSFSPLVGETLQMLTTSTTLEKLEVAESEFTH
Experiment [2] addresses Transient receptor potential cation channel subfamily M member 6 (Homo sapiens) (UniProt Q9BX84). Kind of experiment: Inhibition of TRPM6 (unknown origin) at 1 uM by Ambit Kinomescan binding assay relative to control.
Experiment [3] concerns the target BMP-2-inducible protein kinase (Homo sapiens) (UniProt Q9NSY1). The experiment is described as follows: Inhibition of BIKE (unknown origin) at 1 uM by Ambit Kinomescan binding assay relative to control; values are per cent of control.
Experiment [4] has as its target Serine/threonine-protein kinase TNNI3K (Homo sapiens) (UniProt Q59H18). Kind of experiment: Inhibition of TNNI3K (unknown origin) at 1 uM by Ambit Kinomescan binding assay relative to control.
The target of experiment [5] is Serine/threonine-protein kinase PLK3 (Homo sapiens) (UniProt Q9H4B4). Kind of experiment: Inhibition of PLK3 (unknown origin) at 1 uM by Ambit Kinomescan binding assay relative to control; values are per cent of control.
Serine/threonine-protein kinase PLK3 (Homo sapiens), sequence (Q9H4B4 whole entry, looked up): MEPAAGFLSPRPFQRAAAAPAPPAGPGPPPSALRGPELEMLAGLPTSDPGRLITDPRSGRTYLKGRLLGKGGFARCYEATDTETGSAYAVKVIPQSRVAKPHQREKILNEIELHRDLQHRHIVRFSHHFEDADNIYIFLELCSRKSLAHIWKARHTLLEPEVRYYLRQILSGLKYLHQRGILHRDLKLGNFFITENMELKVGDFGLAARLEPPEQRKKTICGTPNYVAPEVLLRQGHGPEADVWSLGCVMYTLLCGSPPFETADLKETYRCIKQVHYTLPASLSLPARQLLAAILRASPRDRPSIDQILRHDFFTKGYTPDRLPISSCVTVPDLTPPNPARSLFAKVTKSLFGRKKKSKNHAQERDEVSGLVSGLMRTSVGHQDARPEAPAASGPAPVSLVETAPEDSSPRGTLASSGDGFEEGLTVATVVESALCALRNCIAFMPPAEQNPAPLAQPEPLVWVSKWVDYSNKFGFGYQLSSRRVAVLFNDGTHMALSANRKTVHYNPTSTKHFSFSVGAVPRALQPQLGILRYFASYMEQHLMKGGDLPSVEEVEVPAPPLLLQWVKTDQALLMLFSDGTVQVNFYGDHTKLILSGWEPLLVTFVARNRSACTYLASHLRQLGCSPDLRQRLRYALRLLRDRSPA
The nature of experiment [6]: Inhibition of […] K2 labeling site in human Huh-7 cells at 10 uM by KiNativ Profiling analysis relative to control. The settings on record: condition cancer.
Experiment [7] concerns the target T1, Serine/threonine-protein kinase Chk1 (Homo sapiens) (UniProt O14757).
T1 sequence (whole entry): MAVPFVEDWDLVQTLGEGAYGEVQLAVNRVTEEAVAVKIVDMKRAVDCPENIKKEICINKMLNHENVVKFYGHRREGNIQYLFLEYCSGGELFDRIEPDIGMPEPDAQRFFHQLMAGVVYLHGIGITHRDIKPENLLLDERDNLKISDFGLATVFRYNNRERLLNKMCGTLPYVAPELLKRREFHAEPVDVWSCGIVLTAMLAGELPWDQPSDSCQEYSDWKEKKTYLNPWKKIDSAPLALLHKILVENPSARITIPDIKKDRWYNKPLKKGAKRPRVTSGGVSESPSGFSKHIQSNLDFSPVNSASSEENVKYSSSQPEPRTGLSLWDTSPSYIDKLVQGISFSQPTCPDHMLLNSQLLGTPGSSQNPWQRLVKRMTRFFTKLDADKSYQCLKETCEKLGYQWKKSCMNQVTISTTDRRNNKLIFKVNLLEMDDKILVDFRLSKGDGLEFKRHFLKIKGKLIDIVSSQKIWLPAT
Kind of experiment: Inhibition of CHK1 Lys2 labeling site harbouring DIKPENLLLDERDNLK in human A-375 cells at 5 uM by KiNativ Profiling analysis relative to control. The class given is cell-based.

Experiment [8] has as its target T2, Aurora kinase A (Homo sapiens) (UniProt O14965).
T2 sequence (whole entry): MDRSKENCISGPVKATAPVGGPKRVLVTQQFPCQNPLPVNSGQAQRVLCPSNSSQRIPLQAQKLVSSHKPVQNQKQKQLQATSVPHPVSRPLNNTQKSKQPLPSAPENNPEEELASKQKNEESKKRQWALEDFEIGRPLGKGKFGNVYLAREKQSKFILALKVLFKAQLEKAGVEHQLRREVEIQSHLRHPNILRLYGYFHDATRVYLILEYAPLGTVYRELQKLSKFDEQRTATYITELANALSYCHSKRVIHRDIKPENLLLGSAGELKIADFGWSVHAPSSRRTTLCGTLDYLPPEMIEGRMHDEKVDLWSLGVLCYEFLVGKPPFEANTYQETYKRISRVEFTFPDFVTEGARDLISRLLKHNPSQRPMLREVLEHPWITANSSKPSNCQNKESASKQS
The experiment is described as follows: Inhibition of AURKA (unknown origin) at 10 uM by Ambit Kinomescan binding assay.

Experiment [9] has as its target Ribosomal protein S6 kinase alpha-1 (Homo sapiens) (UniProt Q15418). Kind of experiment: Inhibition of RSK1 domain2 ACT labeling site in human Huh-7 cell lysate at 1 uM by KiNativ Profiling analysis relative to control. The class given is subcellular.
In experiment [10] the target is T3, Mitogen-activated protein kinase 13 (Homo sapiens) (UniProt O15264).
T3 sequence (whole entry): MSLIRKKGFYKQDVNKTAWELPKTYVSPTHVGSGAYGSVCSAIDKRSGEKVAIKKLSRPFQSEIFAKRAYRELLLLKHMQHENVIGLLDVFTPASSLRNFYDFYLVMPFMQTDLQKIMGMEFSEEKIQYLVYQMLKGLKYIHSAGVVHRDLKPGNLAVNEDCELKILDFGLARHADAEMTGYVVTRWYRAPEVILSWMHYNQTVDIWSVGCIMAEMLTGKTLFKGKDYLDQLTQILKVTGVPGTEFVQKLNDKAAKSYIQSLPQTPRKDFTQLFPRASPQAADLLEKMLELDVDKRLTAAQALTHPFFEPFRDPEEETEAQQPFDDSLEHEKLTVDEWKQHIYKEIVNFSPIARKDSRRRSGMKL
The experiment is described as follows: Inhibition of p38delta Lys2 labeling site in human Huh-7 cells at 1 uM by KiNativ Profiling analysis relative to control. The class given is cell-based.

In experiment [11] the target is T4, PAN2-PAN3 deadenylation complex subunit PAN3 (Homo sapiens) (UniProt Q58A45).
T4 sequence (whole entry): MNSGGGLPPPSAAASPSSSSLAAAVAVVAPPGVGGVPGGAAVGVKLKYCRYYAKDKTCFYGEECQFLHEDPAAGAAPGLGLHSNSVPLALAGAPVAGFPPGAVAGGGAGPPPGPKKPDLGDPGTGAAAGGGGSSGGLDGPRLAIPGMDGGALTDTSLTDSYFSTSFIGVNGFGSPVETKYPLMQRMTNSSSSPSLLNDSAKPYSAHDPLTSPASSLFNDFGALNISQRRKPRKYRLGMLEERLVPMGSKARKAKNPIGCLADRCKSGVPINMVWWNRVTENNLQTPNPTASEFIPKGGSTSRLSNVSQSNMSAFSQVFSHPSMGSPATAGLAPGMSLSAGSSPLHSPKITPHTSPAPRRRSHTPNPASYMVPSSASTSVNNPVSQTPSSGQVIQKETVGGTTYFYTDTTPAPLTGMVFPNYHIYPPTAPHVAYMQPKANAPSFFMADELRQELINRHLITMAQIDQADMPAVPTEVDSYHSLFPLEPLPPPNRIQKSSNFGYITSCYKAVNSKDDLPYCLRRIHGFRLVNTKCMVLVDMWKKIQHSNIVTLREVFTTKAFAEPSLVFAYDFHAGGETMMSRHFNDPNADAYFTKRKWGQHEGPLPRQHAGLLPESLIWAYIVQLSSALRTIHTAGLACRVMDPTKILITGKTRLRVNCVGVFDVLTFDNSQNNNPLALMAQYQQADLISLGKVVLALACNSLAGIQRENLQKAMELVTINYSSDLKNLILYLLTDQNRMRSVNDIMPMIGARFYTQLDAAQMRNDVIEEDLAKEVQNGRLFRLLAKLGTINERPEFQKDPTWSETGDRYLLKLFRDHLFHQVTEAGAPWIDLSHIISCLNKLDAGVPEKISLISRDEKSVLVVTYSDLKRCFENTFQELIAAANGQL
The experiment is described as follows: Inhibition of PAN3 Protein Kinase Domain labeling site in human Huh-7 cell lysate at 1 uM by KiNativ Profiling analysis relative to control. Type of experiment: subcellular.

Transient receptor potential cation channel subfamily M member 6 (Homo sapiens), sequence (Q9BX84 whole entry): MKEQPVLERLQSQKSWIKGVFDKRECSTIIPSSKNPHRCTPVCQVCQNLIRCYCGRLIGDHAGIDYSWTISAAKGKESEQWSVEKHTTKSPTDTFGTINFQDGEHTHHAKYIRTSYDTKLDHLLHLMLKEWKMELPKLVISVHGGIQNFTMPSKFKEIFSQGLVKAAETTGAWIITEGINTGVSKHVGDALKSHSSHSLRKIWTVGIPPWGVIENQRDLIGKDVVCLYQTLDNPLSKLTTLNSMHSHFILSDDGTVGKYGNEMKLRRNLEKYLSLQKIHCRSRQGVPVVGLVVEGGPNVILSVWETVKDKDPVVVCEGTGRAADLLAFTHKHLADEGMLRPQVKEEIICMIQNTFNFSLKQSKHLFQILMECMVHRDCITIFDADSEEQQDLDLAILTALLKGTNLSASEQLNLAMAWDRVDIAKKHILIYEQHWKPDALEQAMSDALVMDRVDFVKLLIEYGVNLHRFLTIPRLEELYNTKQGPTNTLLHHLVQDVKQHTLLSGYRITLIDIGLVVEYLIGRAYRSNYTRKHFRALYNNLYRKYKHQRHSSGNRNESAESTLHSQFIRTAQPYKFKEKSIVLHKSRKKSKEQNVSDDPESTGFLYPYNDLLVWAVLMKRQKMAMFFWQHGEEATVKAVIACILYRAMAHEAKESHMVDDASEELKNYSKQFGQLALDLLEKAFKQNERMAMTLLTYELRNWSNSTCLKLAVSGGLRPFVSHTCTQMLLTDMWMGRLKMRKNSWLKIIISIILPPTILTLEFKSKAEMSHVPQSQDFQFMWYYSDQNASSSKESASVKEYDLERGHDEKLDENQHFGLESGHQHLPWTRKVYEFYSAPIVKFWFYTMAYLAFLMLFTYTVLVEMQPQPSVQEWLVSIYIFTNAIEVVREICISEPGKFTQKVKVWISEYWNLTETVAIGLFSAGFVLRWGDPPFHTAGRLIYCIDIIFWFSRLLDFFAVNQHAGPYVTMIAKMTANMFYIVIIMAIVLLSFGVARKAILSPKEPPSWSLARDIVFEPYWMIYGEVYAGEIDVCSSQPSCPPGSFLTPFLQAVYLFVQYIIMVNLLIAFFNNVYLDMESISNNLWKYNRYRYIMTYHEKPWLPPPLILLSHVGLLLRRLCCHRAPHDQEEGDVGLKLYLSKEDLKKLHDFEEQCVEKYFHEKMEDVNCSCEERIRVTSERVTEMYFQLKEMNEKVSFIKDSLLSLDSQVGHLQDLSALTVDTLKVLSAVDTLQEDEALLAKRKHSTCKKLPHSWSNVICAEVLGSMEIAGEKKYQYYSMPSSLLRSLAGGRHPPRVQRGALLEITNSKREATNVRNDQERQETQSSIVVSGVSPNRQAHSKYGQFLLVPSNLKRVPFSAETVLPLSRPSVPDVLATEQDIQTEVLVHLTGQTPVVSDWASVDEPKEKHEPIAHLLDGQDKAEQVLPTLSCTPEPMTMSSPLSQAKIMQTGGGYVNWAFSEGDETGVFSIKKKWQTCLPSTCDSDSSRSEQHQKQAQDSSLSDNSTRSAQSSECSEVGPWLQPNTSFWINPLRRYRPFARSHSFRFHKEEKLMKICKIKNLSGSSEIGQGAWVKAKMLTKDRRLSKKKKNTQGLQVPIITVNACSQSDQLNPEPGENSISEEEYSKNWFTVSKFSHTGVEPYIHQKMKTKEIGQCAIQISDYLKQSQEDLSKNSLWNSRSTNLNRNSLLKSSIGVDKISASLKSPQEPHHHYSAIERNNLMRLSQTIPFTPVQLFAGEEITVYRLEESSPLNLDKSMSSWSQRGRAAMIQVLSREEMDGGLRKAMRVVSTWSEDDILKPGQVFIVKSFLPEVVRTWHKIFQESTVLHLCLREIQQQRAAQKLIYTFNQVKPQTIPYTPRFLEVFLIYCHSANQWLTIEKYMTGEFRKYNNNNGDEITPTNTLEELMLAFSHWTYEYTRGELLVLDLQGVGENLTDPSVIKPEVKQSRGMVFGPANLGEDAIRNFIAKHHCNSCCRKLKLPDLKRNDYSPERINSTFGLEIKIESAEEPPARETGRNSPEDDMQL
Ribosomal protein S6 kinase alpha-1 (Homo sapiens), sequence (Q15418 whole entry, the tested form may be a part): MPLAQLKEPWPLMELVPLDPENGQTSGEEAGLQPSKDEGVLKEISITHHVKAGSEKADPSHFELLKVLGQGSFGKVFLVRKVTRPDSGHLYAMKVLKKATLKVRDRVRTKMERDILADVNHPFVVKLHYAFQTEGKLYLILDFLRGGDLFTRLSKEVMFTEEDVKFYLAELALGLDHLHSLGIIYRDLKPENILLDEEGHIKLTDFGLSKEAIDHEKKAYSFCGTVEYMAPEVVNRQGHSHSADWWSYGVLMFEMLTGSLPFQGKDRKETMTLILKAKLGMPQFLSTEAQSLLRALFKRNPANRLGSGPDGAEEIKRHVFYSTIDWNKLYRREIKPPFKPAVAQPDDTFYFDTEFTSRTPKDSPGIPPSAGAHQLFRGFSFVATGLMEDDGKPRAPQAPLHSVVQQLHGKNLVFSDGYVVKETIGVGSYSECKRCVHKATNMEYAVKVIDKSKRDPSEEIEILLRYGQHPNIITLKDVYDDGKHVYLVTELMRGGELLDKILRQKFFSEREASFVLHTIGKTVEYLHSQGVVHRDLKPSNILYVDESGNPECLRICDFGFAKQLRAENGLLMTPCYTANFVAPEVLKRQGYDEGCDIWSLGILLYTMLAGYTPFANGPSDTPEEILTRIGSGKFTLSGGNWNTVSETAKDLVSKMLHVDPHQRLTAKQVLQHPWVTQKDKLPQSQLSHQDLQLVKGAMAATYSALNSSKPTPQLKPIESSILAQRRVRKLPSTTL
BMP-2-inducible protein kinase (Homo sapiens), sequence (Q9NSY1 whole entry, looked up): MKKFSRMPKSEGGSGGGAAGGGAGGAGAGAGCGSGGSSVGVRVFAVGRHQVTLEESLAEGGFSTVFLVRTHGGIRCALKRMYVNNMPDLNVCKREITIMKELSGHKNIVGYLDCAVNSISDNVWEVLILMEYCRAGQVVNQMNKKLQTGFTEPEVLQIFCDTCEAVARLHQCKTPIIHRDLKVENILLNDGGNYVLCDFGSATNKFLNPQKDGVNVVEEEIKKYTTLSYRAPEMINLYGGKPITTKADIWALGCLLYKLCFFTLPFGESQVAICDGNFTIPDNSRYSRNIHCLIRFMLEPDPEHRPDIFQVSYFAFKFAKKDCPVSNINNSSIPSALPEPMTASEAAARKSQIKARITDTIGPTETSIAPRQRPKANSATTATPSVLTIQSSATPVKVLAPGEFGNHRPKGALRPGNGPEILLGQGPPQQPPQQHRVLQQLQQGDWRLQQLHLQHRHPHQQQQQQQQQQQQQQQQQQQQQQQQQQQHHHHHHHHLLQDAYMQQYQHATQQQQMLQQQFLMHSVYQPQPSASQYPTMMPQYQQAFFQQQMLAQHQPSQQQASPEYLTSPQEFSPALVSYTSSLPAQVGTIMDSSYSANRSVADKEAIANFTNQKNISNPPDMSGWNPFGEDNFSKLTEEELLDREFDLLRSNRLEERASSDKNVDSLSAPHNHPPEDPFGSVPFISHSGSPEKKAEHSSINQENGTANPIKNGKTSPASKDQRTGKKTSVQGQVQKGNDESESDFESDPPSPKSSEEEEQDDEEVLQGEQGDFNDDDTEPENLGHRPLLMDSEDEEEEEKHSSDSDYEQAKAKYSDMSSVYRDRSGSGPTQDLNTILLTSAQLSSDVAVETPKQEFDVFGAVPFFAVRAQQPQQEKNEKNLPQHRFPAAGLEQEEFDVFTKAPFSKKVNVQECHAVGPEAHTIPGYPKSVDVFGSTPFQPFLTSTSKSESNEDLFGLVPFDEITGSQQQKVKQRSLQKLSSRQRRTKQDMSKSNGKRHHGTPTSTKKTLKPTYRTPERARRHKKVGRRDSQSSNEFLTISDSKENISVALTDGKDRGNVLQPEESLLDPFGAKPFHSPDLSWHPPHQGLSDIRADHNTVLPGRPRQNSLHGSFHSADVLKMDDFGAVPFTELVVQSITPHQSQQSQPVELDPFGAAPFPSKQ

On to `CCN1CCN(Cc2ccc(NC(=O)c3ccc(C)c(/C=C/c4cnc5[nH]ccc5c4OC)c3)cc2C(F)(F)F)CC1`, for which the residual activity in [1] was determined as 21%; in experiment [3], 25%; in experiment [5] it was 100%. Moreover, the inhibition is 100% in experiment [2] and 5.9% in experiment [4].
With `CCN1CCN(Cc2ccc(NC(=O)c3ccc(C)c(Oc4ccnc5[nH]ccc45)c3)cc2C(F)(F)F)CC1`, the inhibition at 10 µM in [6] is -6.7%. The inhibition in experiment [7] was 32.3%. Also, the inhibition entry in [8] was “inactive”.
As to `CNc1cc(Oc2cc(C(=O)Nc3cc(N4CCN(C)CC4)cc(C(F)(F)F)c3)ccc2C)ncn1`, the inhibition in experiment [9] is 1.9%; in experiment [10], 13%; in experiment [11], -2.9%.

Usually inhibition stands for the relative decrease from the control value, in per cent.
